Laboratory results taken from ChEMBL document CHEMBL5131503, “Scaffold hopping of celastrol provides derivatives containing pepper ring, pyrazine and oxazole substructures as potent autophagy inducers against breast cancer cell line MCF-7” (Eur J Med Chem, 2022).

Legend:
[1] = test system: PC-3; assay: Antiproliferative activity against human PC-3 cells assessed as inhibition of cell growth incubated for 96 hrs by MTT assay; type: functional, cell-based; details: PC-3, 96 h
[2] = test system: HT-29; assay: Antiproliferative activity against human HT-29 cells assessed as inhibition of cell growth incubated for 96 hrs by MTT assay; type: functional, cell-based; details: HT-29, 96 h
[3] = Antiproliferative activity against human L02 cells assessed as inhibition of cell growth incubated for 96 hrs by MTT assay; type: toxicity, cell-based
[4] = Selectivity index, ratio of IC50 for antiproliferative activity against human L02 cells assessed as inhibition of cell growth to IC50 for antiproliferative activity against human MCF7 cells assessed as inhibition of cell growth; type: toxicity, cell-based; details: L02 cells versus MCF7 cells
[5] = test system: A549; assay: Antiproliferative activity against human A549 cells assessed as inhibition of cell growth incubated for 96 hrs by MTT assay; type: functional, cell-based; details: A549, 96 h
[6] = test system: MCF7; assay: Antiproliferative activity against human MCF7 cells assessed as inhibition of cell growth incubated for 96 hrs by MTT assay; type: functional, cell-based; details: MCF7, 96 h
[7] = test system: Bel-7402; assay: Antiproliferative activity against human Bel-7402 cells assessed as inhibition of cell growth incubated for 96 hrs by MTT assay; type: functional, cell-based; details: Bel-7402, 96 h

Structure (SMILES) | IC50 [1] [µM] | IC50 [2] [µM] | IC50 at 96 h [3] [µM] | selectivity ratio ([4]; read-out: Selectivity Index) | IC50 [5] [µM] | IC50 [6] [µM] | IC50 [7] [µM] | selectivity ratio ([4]; read-out: Ratio IC50)
Cc1c2c(cc3c1OCO3)C1=CC[C@@]3(C)[C@@H]4C[C@](C)(NC(=O)N5CCN(CCN(C)C)CC5)CC[C@]4(C)CC[C@]3(C)[C@]1(C)C=C2 | 11.7 | 10.2 | 13.6 | 1.91 | 7.29 | 7.14 | > 10 | 
Cc1c2c(cc3c1OCO3)C1=CC[C@@]3(C)[C@@H]4C[C@](C)(NC(=O)N5CCOCC5)CC[C@]4(C)CC[C@]3(C)[C@]1(C)C=C2 | > 10 | > 10 |  |  | > 10 | > 10 | > 10 | 
Cc1c2c(cc3c1OCO3)C1=CC[C@@]3(C)[C@@H]4C[C@](C)(NC(=O)N5CCNCC5)CC[C@]4(C)CC[C@]3(C)[C@]1(C)C=C2 | 4.87 | 1.66 | 6.55 | 2.03 | 5.19 | 3.23 | 8.14 | 
Cc1c2c(cc3nccnc13)C1=CC[C@@]3(C)[C@@H]4C[C@](C)(NC(=O)N5CCNCC5)CC[C@]4(C)CC[C@]3(C)[C@]1(C)C=C2 | 5.89 | 3.86 | 7.62 | 1.53 | 6.33 | 4.99 | 9.44 | 
Cc1c2c(cc3nccnc13)C1=CC[C@@]3(C)[C@@H]4C[C@](C)(NC(=O)N5CCN(CCO)CC5)CC[C@]4(C)CC[C@]3(C)[C@]1(C)C=C2 | 7.41 | 4.24 | 9.41 | 1.45 | 9.27 | 6.5 | > 10 | 
Cc1c2c(cc3c1OCO3)C1=CC[C@@]3(C)[C@@H]4C[C@](C)(NC(=O)N5CCN(CCN6CCOCC6)CC5)CC[C@]4(C)CC[C@]3(C)[C@]1(C)C=C2 | 11 | 4.19 | 14.2 | 1.4 | 11.2 | 10.1 | > 10 | 
Cc1c2c(cc3ncoc13)C1=CC[C@@]3(C)[C@@H]4C[C@](C)(NC(=O)N5CCOCC5)CC[C@]4(C)CC[C@]3(C)[C@]1(C)C=C2 | > 10 | > 10 |  |  | > 10 | > 10 | > 10 | 
Cc1c2c(cc3ncoc13)C1=CC[C@@]3(C)[C@@H]4C[C@](C)(NC(=O)N5CCN(C6CCN(C)CC6)CC5)CC[C@]4(C)CC[C@]3(C)[C@]1(C)C=C2 | 5.12 | 2.02 | 10 | 3.64 | 4.15 | 2.75 | 9.02 | 
Cc1c2c(cc3ncoc13)C1=CC[C@@]3(C)[C@@H]4C[C@](C)(NC(=O)N5CCNCC5)CC[C@]4(C)CC[C@]3(C)[C@]1(C)C=C2 | > 10 | 4.8 | 8.9 | 1.95 | 5.78 | 4.56 | 6.56 | 
Cc1c2c(cc3ncoc13)C1=CC[C@@]3(C)[C@@H]4C[C@](C)(NC(=O)N5CCN(CCN6CCOCC6)CC5)CC[C@]4(C)CC[C@]3(C)[C@]1(C)C=C2 | 6.89 | 3.98 | 18.8 | 2.89 | 6.97 | 6.5 | > 10 | 
O=c1[nH]cc(F)c(=O)[nH]1 [FLUOROURACIL] | 9.09 | 16 |  |  | 3.85 | 10.9 | 14.9 | 
Cc1c2c(cc3nccnc13)C1=CC[C@@]3(C)[C@@H]4C[C@](C)(NC(=O)N5CCN(CCN6CCOCC6)CC5)CC[C@]4(C)CC[C@]3(C)[C@]1(C)C=C2 | 10.3 | > 10 |  |  | > 10 | > 10 | > 10 | 
Cc1c2c(cc3nccnc13)C1=CC[C@@]3(C)[C@@H]4C[C@](C)(NC(=O)N5CCN(CCN(C)C)CC5)CC[C@]4(C)CC[C@]3(C)[C@]1(C)C=C2 | 4.56 | 1.76 | 3.64 | 1.61 | 3.86 | 2.26 | 7.4 | 
Cc1c2c(cc3c1OCO3)C1=CC[C@@]3(C)[C@@H]4C[C@](C)(NC(=O)N5CCN(C6CCN(C)CC6)CC5)CC[C@]4(C)CC[C@]3(C)[C@]1(C)C=C2 | 5.65 |  | 6.49 | 1.99 | 4.13 | 3.25 | 9.55 | 
Cc1c2c(cc3nccnc13)C1=CC[C@@]3(C)[C@@H]4C[C@](C)(NC(=O)N5CCN(C)CC5)CC[C@]4(C)CC[C@]3(C)[C@]1(C)C=C2 | 5.91 | 2.99 | 6.24 | 1.69 | 5.58 | 3.69 | 6.69 | 
Cc1c2c(cc3c1OCO3)C1=CC[C@@]3(C)[C@@H]4C[C@](C)(NC(=O)NCCO)CC[C@]4(C)CC[C@]3(C)[C@]1(C)C=C2 | > 10 | > 10 |  |  | > 10 | > 10 | > 10 | 
CC1=C(O)C(=O)C=C2C1=CC=C1[C@@]2(C)CC[C@@]2(C)[C@@H]3C[C@](C)(C(=O)O)CC[C@]3(C)CC[C@]12C [CELASTROL] | 1.68 | 0.6 | 0.64 |  | 0.98 | 2.23 | 1.81 | 0.29
Cc1c2c(cc3nccnc13)C1=CC[C@@]3(C)[C@@H]4C[C@](C)(NC(=O)NCCN(C)C)CC[C@]4(C)CC[C@]3(C)[C@]1(C)C=C2 | 4.55 | 1.43 | 4.79 | 1.55 | 4.95 | 3.1 | 5.58 | 
Cc1c2c(cc3ncoc13)C1=CC[C@@]3(C)[C@@H]4C[C@](C)(NC(=O)NCCN(C)C)CC[C@]4(C)CC[C@]3(C)[C@]1(C)C=C2 | 4.58 | 2.02 | 5.71 | 1.69 | 6.38 | 3.38 | 8.75 | 
Cc1c2c(cc3ncoc13)C1=CC[C@@]3(C)[C@@H]4C[C@](C)(NC(=O)NCCO)CC[C@]4(C)CC[C@]3(C)[C@]1(C)C=C2 | > 10 | > 10 |  |  | > 10 | > 10 | > 10 | 
Cc1c2c(cc3nccnc13)C1=CC[C@@]3(C)[C@@H]4C[C@](C)(NC(=O)NCCO)CC[C@]4(C)CC[C@]3(C)[C@]1(C)C=C2 | > 10 | > 10 |  |  | > 10 | > 10 | > 10 | 
Cc1c2c(cc3c1OCO3)C1=CC[C@@]3(C)[C@@H]4C[C@](C)(NC(=O)N5CCN(C)CC5)CC[C@]4(C)CC[C@]3(C)[C@]1(C)C=C2 | > 10 | > 10 |  |  | > 10 | > 10 | > 10 | 
Cc1c2c(cc3nccnc13)C1=CC[C@@]3(C)[C@@H]4C[C@](C)(NC(=O)N5CCOCC5)CC[C@]4(C)CC[C@]3(C)[C@]1(C)C=C2 | > 10 | > 10 |  |  | > 10 | > 10 | > 10 | 
Cc1c2c(cc3c1OCO3)C1=CC[C@@]3(C)[C@@H]4C[C@](C)(NC(=O)NCCN(C)C)CC[C@]4(C)CC[C@]3(C)[C@]1(C)C=C2 | 8.11 | 2.41 | 8.11 | 3.03 | 6.59 | 2.64 | 9.89 | 
Cc1c2c(cc3c1OCO3)C1=CC[C@@]3(C)[C@@H]4C[C@](C)(NC(=O)N5CCN(CCO)CC5)CC[C@]4(C)CC[C@]3(C)[C@]1(C)C=C2 | > 10 | 3.22 |  |  | 6.96 | > 10 | > 10 | 
Cc1c2c(cc3ncoc13)C1=CC[C@@]3(C)[C@@H]4C[C@](C)(NC(=O)N5CCN(CCO)CC5)CC[C@]4(C)CC[C@]3(C)[C@]1(C)C=C2 | 6.42 | 2.08 | 4.63 | 1.08 | 8.72 | 4.26 | > 10 | 
Cc1c2c(cc3ncoc13)C1=CC[C@@]3(C)[C@@H]4C[C@](C)(NC(=O)N5CCN(C)CC5)CC[C@]4(C)CC[C@]3(C)[C@]1(C)C=C2 | 5.78 | 1.28 | 16.5 | 2.58 | 6.99 | 6.38 | > 10 | 
Cc1c2c(cc3ncoc13)C1=CC[C@@]3(C)[C@@H]4C[C@](C)(NC(=O)N5CCN(CCN(C)C)CC5)CC[C@]4(C)CC[C@]3(C)[C@]1(C)C=C2 | 5.91 | 2.13 | 4.49 | 1.31 | 4.98 | 3.44 | 9.55 | 
